According to article PMC12196476, “New Nitrogen-, Oxygen-, and Sulfur-Containing Heterocyclic Compounds as Anti-Colon Cancer Agents: Synthesis, Multitargeted Evaluations, Molecular Docking Simulations and ADMET Predictions” (Pharmaceuticals, 2025):

Target: recombinant human LDHA protein (Homo sapiens, UniProt P00338)
Assay: In vitro LDHA inhibitory assay (NADH consumption)
Assay type: biochemical

An inhibition at 100 µg/mL (100 µg/mL, three replicates, read-out: Mean Inhibition Percent ± SD, LDHA) of 85.9 ± 2.97% and an IC50 (three independent experiments, read-out: Mean IC50 µM ± SD, LDHA) of 149 ± 7.93 µM were found for `COc1cc(/C=N/c2ncnc3sc4c(c23)CCCC4)cc(OC)c1OC` [Compound 3d, (E)-N-(5,6,7,8-Tetrahydrobenzo[4,5]thieno[2,3-d]pyrimidin-4-yl)-1-(3,4,5-trimethoxyphenyl)methanimine] in this work.
